US20110251379A1, “COMPOUNDS USEFUL FOR TREATING NEURODEGENERATIVE DISORDERS” (Satori Pharmaceuticals, Inc., priority 2010, published 2011)

tested on: amyloid-beta (1-42) peptide; assay: ELISA assay of amyloid-beta (1-42) in conditioned media of 2B7 cells; format: cell-based; details: 5 h, Aβ-42, 2B7 cells, 5 hours; read-out: IC50 range
How it was run: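 2B7 cells were treated with compounds for 5 hours at 37° C in media with 1% DMSO. Conditioned media, diluted 1:2 in blocking buffer, went into a sandwich ELISA with 6E10 capture and an HRP-labelled detection antibody, read by TMB at 450 nm. Values came from an Aβ peptide standard curve.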

| SMILES | IC50 [µM] |
| --- | --- |
| COCO[C@@H]([C@H]1C[C@@H](C)C2=C(O1)[C@H](O)[C@@]1(C)[C@@H]3CC[C@H]4C(C)(C)[C@@H](O[C@@H]5OC[C@@H](O)[C@H](O)[C@H]5O)CC[C@@]45C[C@@]35CC[C@]21C)C(C)(C)O | 1 to 10 |
| CC(=O)O[C@@H]([C@H]1C[C@@H](C)C2=C(O1)[C@H](O)[C@@]1(C)[C@@H]3CC[C@H]4C(C)(C)[C@@H](O[C@H]5CN(O)CCO5)CC[C@@]45C[C@@]35CC[C@]21C)C(C)(C)O | ≤ 1 |
| CC(=O)O[C@@H]([C@H]1C[C@@H](C)[C@H]2[C@H](O1)[C@H](O)[C@@]1(C)[C@@H]3CC[C@H]4C(C)(C)C(OC(=O)C5CCCO5)CC[C@@]45C[C@@]35CC[C@]21C)C(C)(C)O (stereo partly drawn) | ≤ 1 |
| CC(=O)O[C@@H]([C@H]1C[C@@H](C)[C@H]2[C@H](O1)[C@H](O)[C@@]1(C)[C@@H]3CC[C@H]4C(C)(C)[C@@H](OC(=O)Cc5ccccn5)CC[C@@]45C[C@@]35CC[C@]21C)C(C)(C)O | ≤ 1 |
| CC(=O)O[C@@H]([C@H]1C[C@@H](C)C2C(O1)[C@H](O)[C@@]1(C)[C@@H]3CC[C@H]4C(C)(C)[C@@H](OC5CN(C6CCCC6)CCO5)CC[C@@]45C[C@@]35CC[C@]21C)C(C)(C)O (stereo partly drawn) | ≤ 1 |
| CC(=O)O[C@@H]([C@H]1C[C@@H](C)C2=C(O1)[C@H](O)[C@@]1(C)[C@@H]3CC[C@H]4C(C)(C)[C@@H](O)CC[C@@]45C[C@@]35CC[C@]21C)C(C)(C)O | < 10 |
| CC(=O)O[C@@H]([C@H]1C[C@@H](C)[C@H]2[C@H](O1)C(=O)[C@@]1(C)[C@@H]3CC[C@H]4C(C)(C)[C@@H](O[C@H]5CN(CC(N)=O)CCO5)CC[C@@]45C[C@@]35CC[C@]21C)C(C)(C)O [drawing 969] | ≤ 1 |
| CC(=O)O[C@@H]([C@H]1C[C@@H](C)C2C(O1)[C@H](O)[C@@]1(C)[C@@H]3CC[C@H]4C(C)(C)[C@@H](OC(CO)OCCO)CC[C@@]45C[C@@]35CC[C@]21C)C(C)(C)O (stereo partly drawn) | ≤ 1 |
| CC(=O)O[C@@H]([C@H]1C[C@@H](C)C2C(O1)[C@H](O)[C@@]1(C)[C@@H]3CC[C@H]4C(C)(C)[C@@H](O[C@H]5CNCCO5)CC[C@@]45C[C@@]35CC[C@]21C)C(C)(C)O (stereo partly drawn) | ≤ 1 |
| C[C@@H]1C[C@H]([C@@H]2OC(=O)OC2(C)C)OC2C(O)[C@@]3(C)[C@@H]4CC[C@H]5C(C)(C)[C@@H](O[C@@H]6OC[C@@H](O)[C@H](O)[C@H]6O)CC[C@@]56C[C@@]46CC[C@]3(C)C21 (stereo partly drawn) | 1 to 10 |
| CC(=O)O[C@@H]([C@H]1C[C@@H](C)C2=C(O1)[C@H](O)[C@@]1(C)[C@@H]3CC[C@H]4C(C)(C)[C@@H](O[C@@H]5OC[C@@H](O)[C@H](O)[C@H]5O)CC[C@@]45C[C@@]35CC[C@]21C)C(C)(C)O | ≤ 1 |

same assay, conditions: Aβ-42, 2.5 umol/L; read-out: % Inhibition (range)

| SMILES | inhibition at 2.5 µM [%] |
| --- | --- |
| C[C@@H]1CC[C@@]2(NC1)OC1C[C@H]3C4CC=C5C[C@@H](O)CC[C@]5(C)C4CC[C@]3(C)C1[C@@H]2C (stereo partly drawn) | < 25 |

same assay, conditions: Aβ-42, 10 umol/L; read-out: % Inhibition (range)

| SMILES | inhibition at 10 µM [%] |
| --- | --- |
| CC1COC2C[C@H]3[C@@H]4CCC5C[C@@H](O)CC[C@]5(C)[C@H]4CC[C@]3(C)C2[C@@H]1C (stereo partly drawn) | < 25 |
| C[C@@H]1C[C@H]([C@H](O)C(C)(C)O)OC2C1[C@@]1(C)CC[C@@]34C[C@@]35CC[C@H](O)C(C)(C)[C@@H]5CC[C@H]4[C@]1(C)[C@H]2O (stereo partly drawn) [drawing 887] | < 25 |
| CC(=O)O[C@@H]([C@H]1C[C@@H](C)C2=C(O1)[C@H](O)[C@@]1(C)[C@@H]3CC[C@H]4C(C)(C)[C@@H](O)CC[C@@]45C[C@@]35CC[C@]21C)C(C)(C)O | > 75 |

same assay, conditions: Aβ-42, 20 umol/L

| SMILES | % Inhibition (range) |
| --- | --- |
| CC1CC(C(O)C(C)(C)O)OC2C1C1(C)CCC34CC35CCC(OC3CN(C(=O)Cc6ccc(F)cc6)CCO3)C(C)(C)C5CCC4C1(C)C2O (stereo not drawn) | E E (% inhibition of 25-75%) |
| CC1CC(C(O)C(C)(C)O)OC2C1C1(C)CCC34CC35CCC(OC3CN(C(=O)C6CCOCC6)CCO3)C(C)(C)C5CCC4C1(C)C2O (stereo not drawn) | E (% inhibition of 25-75%) |
| CC1CC(C(O)C(C)(C)O)OC2C1C1(C)CCC34CC35CCC(OC3CN(CCC(=O)O)CCO3)C(C)(C)C5CCC4C1(C)C2O (stereo not drawn) | E E (% inhibition of 25-75%) |
| CC1CC(C(O)C(C)(C)O)OC2C1C1(C)CCC34CC35CCC(OC3CN(C(=O)C6CCCCC6)CCO3)C(C)(C)C5CCC4C1(C)C2O (stereo not drawn) | E (% inhibition of 25-75%) |
| CC1CC(C(O)C(C)(C)O)OC2C1C1(C)CCC34CC35CCC(OC3CN(C(=O)c6ccncc6)CCO3)C(C)(C)C5CCC4C1(C)C2O (stereo not drawn) | E E (% inhibition of 25-75%) |

same assay, conditions: Aβ-42, 100 umol/L

| SMILES | % Inhibition (range) |
| --- | --- |
| CC1CC(C(O)C(C)(C)O)OC2C1C1(C)CCC34CC35CCC(OC3CN(C6CC6)CCO3)C(C)(C)C5CCC4C1(C)C2O (stereo not drawn) | F (% inhibition of <25%) |
| CC1CC(C(O)C(C)(C)O)OC2C1C1(C)CCC34CC35CCC(OC3CN(C(=O)Cc6ccc(F)cc6)CCO3)C(C)(C)C5CCC4C1(C)C2O (stereo not drawn) | E E (% inhibition of 25-75%) |
| CC1CC(C(O)C(C)(C)O)OC2C1C1(C)CCC34CC35CCC(OC3CN(CCC(=O)O)CCO3)C(C)(C)C5CCC4C1(C)C2O (stereo not drawn) | E E (% inhibition of 25-75%) |
| CC1CC(C(O)C(C)(C)O)OC2C1C1(C)CCC34CC35CCC(OC3CN(C(=O)Cc6ccccn6)CCO3)C(C)(C)C5CCC4C1(C)C2O (stereo not drawn) | F (% inhibition of <25%) |
| CC1CC(C(O)C(C)(C)O)OC2C1C1(C)CCC34CC35CCC(OC3CN(C(=O)c6ccncc6)CCO3)C(C)(C)C5CCC4C1(C)C2O (stereo not drawn) | E E (% inhibition of 25-75%) |
| CC1CC(C(O)C(C)(C)O)OC2C1C1(C)CCC34CC35CCC(OC3CN(CCF)CCO3)C(C)(C)C5CCC4C1(C)C2O (stereo not drawn) | F (% inhibition of <25%) |
| CC1CC(C(O)C(C)(C)O)OC2C1C1(C)CCC34CC35CCC(OC3CN(C(=O)Cc6cccnc6)CCO3)C(C)(C)C5CCC4C1(C)C2O (stereo not drawn) | F (% inhibition of <25%) |

same assay, conditions: Aβ-42, 100 umol/L; read-out: % Inhibition (range)

| SMILES | inhibition at 100 µM [%] |
| --- | --- |
| C[C@@H]1C[C@H]([C@H](O)C(C)(C)O)OC2C1[C@@]1(C)CC[C@@]34C[C@@]35CC[C@H](O)C(C)(C)[C@@H]5CC[C@H]4[C@]1(C)[C@H]2O (stereo partly drawn) [drawing 888] | 25 to 75 |
| CC(=O)O[C@@H]([C@H]1C[C@@H](C)C2=C(O1)[C@H](O[Si](C)(C)C(C)(C)C)[C@@]1(C)[C@@H]3CC[C@H]4C(C)(C)[C@H](N)CC[C@@]45C[C@@]35CC[C@]21C)C(C)(C)O | < 25 |
| C[C@@H]1C[C@H]([C@@H]2OC(=O)OC2(C)C)OC2C1[C@@]1(C)CC[C@@]34C[C@@]35CC[C@H](O)C(C)(C)[C@@H]5CC[C@H]4[C@]1(C)[C@H]2O (stereo partly drawn) | 25 to 75 |
| CC(=O)O[C@@H]([C@H]1C[C@@H](C)C2C(O1)[C@H](O)[C@@]1(C)[C@@H]3CC[C@H]4C(C)(C)[C@H](N)CC[C@@]45C[C@@]35CC[C@]21C)C(C)(C)O (stereo partly drawn) | 25 to 75 |

same assay, conditions: Aβ-42, 2B7 cells, 5 hours; read-out: IC50 range

| SMILES | IC50 [µM] |
| --- | --- |
| CC1CC(CN(CC2CC2)S(C)(=O)=O)OC2C1C1(C)CCC34CC35CCC(O)C(C)(C)C5CCC4C1(C)C2O (stereo not drawn) | > 10 |
| CC1CC(C(OC(=O)C(C)(C)C)C(C)(C)O)OC2C1C1(C)CCC34CC35CCC(O)C(C)(C)C5CCC4C1(C)C2O (stereo not drawn) | > 1 |
| CC1CC(C(O)C(C)(C)O)OC2C1C1(C)CCC34CC35CCC(OC3CN(C(=O)CN6CCCC6)CCO3)C(C)(C)C5CCC4C1(C)C2O (stereo not drawn) | 1 to 10 |
| CC(=O)OC(C1CC(C)C2C(O1)C(OC(=O)C(F)(F)F)C1(C)C3CCC4C(C)(C)C(OC(=O)C(F)(F)F)CCC45CC35CCC21C)C(C)(C)O (stereo not drawn) | ≤ 1 |
| CC(=O)N(Cc1ccc(F)cc1)CC1CC(C)C2C(O1)C(O)C1(C)C3CCC4C(C)(C)C(O)CCC45CC35CCC21C (stereo not drawn) | 1 to 10 |
| CC(=O)OC(C1CC(C)C2C(O1)C(O)C1(C)C3CCC4C(C)(C)C(OC5CN(S(C)(=O)=O)CCO5)CCC45CC35CCC21C)C(C)(C)O (stereo not drawn) [drawing 785] | ≤ 1 |
| CC(=O)OC(C1CC(C)C2C(O1)C(O)C1(C)C3CCC4C(C)(C)C(OC(=O)C5(C)COC5)CCC45CC35CCC21C)C(C)(C)O (stereo not drawn) | ≤ 1 |
| CC(=O)N(Cc1cc(F)cc(F)c1)CC1CC(C)C2C(O1)C(O)C1(C)C3CCC4C(C)(C)C(OC(=O)CN5CCOCC5)CCC45CC35CCC21C (stereo not drawn) | > 10 |
| CC(=O)OC(C1CC(C)C2C(O1)C(OC(N)=O)C1(C)C3CCC4C(C)(C)C(OC(N)=O)CCC45CC35CCC21C)C(C)(C)O (stereo not drawn) | > 10 |
| CC(=O)N(Cc1cc(F)cc(F)c1)CC1CC(C)C2C(O1)C(O)C1(C)C3CCC4C(C)(C)C(O)CCC45CC35CCC21C (stereo not drawn) [drawing 839] | ≤ 1 |
| C[C@@H]1C[C@H]([C@H](O)C(C)(C)O)OC2C1[C@@]1(C)CC[C@@]34C[C@@]35CC[C@H](O)C(C)(C)[C@@H]5CC[C@H]4[C@]1(C)[C@H]2O (stereo partly drawn) [drawing 887] | 1 to 10 |
| CC(=O)N(CC1CC(C)C2C(O1)C(O)C1(C)C3CCC4C(C)(C)C(O)CCC45CC35CCC21C)CC(C)(C)C (stereo not drawn) | 1 to 10 |
| CC1CC(C2OC(=O)OC2(C)C)OC2C1C1(C)CCC34CC35CCC(O)C(C)(C)C5CCC4C1(C)C2O (stereo not drawn) | > 10 |
| CC1CC(C(O)C(C)(C)O)OC2C1C1(C)CCC34CC35CCC(OC3CN(C(=O)CN(C)C)CCO3)C(C)(C)C5CCC4C1(C)C2O (stereo not drawn) | 1 to 10 |
| CC(=O)N(CC1CC(C)C2C(O1)C(O)C1(C)C3CCC4C(C)(C)C(O)CCC45CC35CCC21C)CC(F)(F)F (stereo not drawn) | > 10 |
| CC(=O)N(CC1CC(C)C2C(O1)C(O)C1(C)C3CCC4C(C)(C)C(OC(=O)c5cccnc5)CCC45CC35CCC21C)C1CCC1 (stereo not drawn) | > 10 |
| CC(=O)N(Cc1ccccn1)CC1CC(C)C2C(O1)C(O)C1(C)C3CCC4C(C)(C)C(O)CCC45CC35CCC21C (stereo not drawn) [drawing 841] | 1 to 10 |
| CC(=O)N(CC1CC(C)C2C(O1)C(O)C1(C)C3CCC4C(C)(C)C(O)CCC45CC35CCC21C)C(C)C (stereo not drawn) [drawing 845] | 1 to 10 |
| CO[C@@H]1[C@@H](OC)[C@H](O[C@H]2CC[C@]34C[C@]35CC[C@]3(C)C6C(O[C@@H]([C@H](OC(C)=O)C(C)(C)O)C[C@H]6C)[C@H](O)[C@@]3(C)[C@@H]5CC[C@H]4C2(C)C)OC[C@H]1OC (stereo partly drawn) [drawing 937] | < 10 |
| CC1CC(C(=O)O)OC2C1C1(C)CCC34CC35CCC(O)C(C)(C)C5CCC4C1(C)C2O (stereo not drawn) [drawing 803] | > 10 |
